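Briefly, cells in 96-well plates were exposed to five compound concentrations for 48 h, and endpoints were estimated by linear interpolation. Definition used: TGI = concentration required for complete inhibition of growth.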
What was measured:
Assay in all cases: NCI-60 cell line screen, 48 h
A498 renal = system: A498 renal
CAKI-1 renal = system: CAKI-1 renal
HCC-2998 colon = system: HCC-2998 colon
HCT-15 colon = system: HCT-15 colon
HS 578T breast = system: HS 578T breast
LOX IMVI melanoma = system: LOX IMVI melanoma
M14 melanoma = system: M14 melanoma
MDA-MB-231 breast = system: MDA-MB-231 breast
NCI/ADR-RES ovarian = system: NCI/ADR-RES ovarian
SN12C renal = system: SN12C renal
K-562 leukemia = system: K-562 leukemia

Structure (SMILES)	TGI (A498 renal) [µM]	TGI (CAKI-1 renal) [µM]	TGI (HCC-2998 colon) [µM]	TGI (HCT-15 colon) [µM]	TGI (HS 578T breast) [µM]	TGI (LOX IMVI melanoma) [µM]	TGI (M14 melanoma) [µM]	TGI (MDA-MB-231 breast) [µM]	TGI (NCI/ADR-RES ovarian) [µM]	TGI (SN12C renal) [µM]	TGI (K-562 leukemia) [µM]
CCOC(=O)C1C(c2ccc(OC)cc2)c2c([nH]n(-c3ccccc3)c2=O)CC1(C)O (configuration not stated)	> 100	> 100	> 100	> 100	> 100	> 100	> 100	> 100	> 100	> 100	–
CN(/N=C\c1ccc2ccccc2c1)C1=NCCCN1	28.8	22.7	27.2	74.4	42.1	21.6	–	34.5	74.4	–	34.2
CC(=O)C(C(C)=O)[C@H]1OC(C)(C)O[C@H]1[C@H]1COC(C)(C)O1	> 100	> 100	86	> 100	> 100	> 100	> 100	89	> 100	> 100	> 100
Cc1cc(C)nc(NS(=O)(=O)c2ccc(Nc3c4ccccc4nc4ccc(C(=O)Nc5ccc(S(=O)(=O)N=C(N)N)cc5)cc34)cc2)n1	> 100	> 100	> 100	> 100	> 100	34.4	> 100	> 100	> 100	> 100	62.3
O=C1C=C/C(=C/[C@H]2SSC=C[C@]23C=CC(=O)C3)C1	38.3	24.8	44.7	48.2	93.2	> 48.7	> 54.7	> 83.1	68.1	52.3	> 100
CCOC(=O)c1cc2c3c(cc(OC)c2[nH]1)N(C(=O)OCC)CC3	> 100	> 100	> 100	> 100	> 100	> 100	> 100	> 100	> 100	> 100	> 100
N#CC(NNC(=O)c1ccccc1O)c1c(O)ccc2ccccc12 (configuration not stated)	> 66	21	> 100	32.8	> 86.2	6.64	30	27.7	19.3	37.9	> 66.3
CC1CCCN1CCCOC(=O)c1ccc(OC2C=CCCC2)cc1 (configuration not stated)	> 100	–	64.9	53	71.8	36.7	31.6	47.8	> 100	> 100	38.9
COc1ccc(N=Nc2c(N)nn3c(SC)c(C#N)c(N)nc23)cc1	28.5	23.5	16.7	26.4	6.91	3.12	25.1	7.02	49.8	19.1	4.65
CCOC(=O)c1cn(CC)c2ccc3c(c2c1=O)S(=O)(=O)C=C3	> 100	> 100	> 100	> 100	> 100	> 100	> 100	> 100	> 100	> 100	> 100
COC(=O)C(=O)C(C(=O)C(=O)Nc1ccc(C)c(C)c1)c1nc2ccc([N+](=O)[O-])cc2[nH]c1=O (configuration not stated)	> 100	> 100	> 100	> 100	> 100	> 100	> 100	> 100	> 100	> 100	> 100
CC(=O)O[C@H]1C(=O)[C@@]2(C)[C@H]([C@H](OC(=O)c3ccco3)[C@]3(O)C[C@H](OC(=O)[C@H](O)[C@@H](NC(=O)c4ccccc4)c4ccccc4)C(C)=C1C3(C)C)[C@]1(OC(C)=O)CO[C@@H]1C[C@@H]2O	> 25	> 25	20	> 25	> 8.33	> 25	> 25	> 25	> 25	> 25	–
Cc1cc(=O)n2nc(CSc3nnc(Sc4cc(O)ccc4O)s3)sc2n1	> 100	> 100	> 100	> 100	> 100	36.3	> 100	97.4	> 100	> 100	41.1
CC(=O)N[C@@H](Cc1ccc(O)cn1)C(=O)NC1CCCCC1	> 100	> 100	> 100	> 100	> 100	> 100	> 100	> 100	> 100	> 100	> 100
COC(=O)[C@@H]1COC(=O)N1	> 100	> 100	> 100	> 100	> 100	> 100	> 100	> 100	> 100	> 100	> 100
O=C(NCc1ccccc1Cl)c1c(O)c2ccccc2[nH]c1=O	30.4	96.6	> 100	> 100	> 100	> 100	–	45.3	56.6	> 100	> 100
O=C1C2CC[C@@H]3C(=O)C(Cl)(Cl)[C@@H]3CCC2C1(Cl)Cl (some centres not stated)	> 100	> 100	> 100	> 100	> 100	> 100	> 100	> 100	> 100	> 100	> 100
O=C1c2ccccc2C(=O)c2sc(Nc3cc(Cl)ccc3Cl)nc21	41.9	11.7	20.7	9.48	> 72.3	5.78	> 42.6	5.56	7.31	3.17	> 31.8
CSc1nc(C)c2c(n1)N(c1ccc(Cl)cc1)CC2	> 100	> 100	> 100	> 100	> 100	> 100	> 100	> 100	> 100	> 100	> 100
CC(C)[C@@H]1NC(=O)[C@@H]2N=C(O[C@H]2C)[C@H](C(C)C)NC(=O)C2N=C1O[C@H]2C	> 100	> 100	> 100	> 100	> 100	> 100	> 100	> 100	> 100	> 100	> 100
CC(NNC(=O)c1ccncc1)c1ccc(Cl)cc1Cl (configuration not stated)	> 100	> 100	> 100	> 100	> 100	> 100	> 100	> 100	> 100	> 100	> 100
CCc1cc2c(c3c1CCCC3=O)CC1(C2)Cc2cc(CC)c3c(c2C1)C(=O)CCC3	> 100	> 100	> 100	> 100	> 100	> 100	> 100	> 100	> 100	> 100	> 100
Cc1ccc(-n2cc(-c3ccc(Cl)cc3)c3c(=N)n(N)cnc32)cc1	29.5	34.3	19.2	28.9	17.5	29.8	17.2	25.3	26.8	29.9	47.6
C#CCOC(=O)C(=[N+]=[N-])C(=O)CC(C)C	> 10	> 10	> 10	> 10	> 10	> 10	> 10	> 10	> 10	> 10	> 10
O=C(O)CCC1NC(/C(=C/c2ccccc2O)NC(=O)c2ccccc2)OC1=O (configuration not stated)	> 100	> 100	> 100	> 100	> 100	> 100	> 100	> 100	> 100	> 100	> 100
Cc1ccc2nc(C(=O)O)c(=O)[nH]c2c1	> 100	> 100	> 100	> 100	> 100	> 100	> 100	> 100	> 100	> 100	> 100
CCC1CN2CCc3c([nH]c4ccccc34)[C@@](C(=O)OC)(c3cc4c(cc3OC)N(C)C3C(O)(C(=O)OC)C(C(=O)OC)C5(CC)C=CCN6CCC43C65)C[C@@H](C2)[C@@H]1C(C)(C)C (some centres not stated)	1.12	> 10	1.52	2.82	> 6.86	2	8.22	3.42	> 7.23	9.93	9.73
Oc1ccc(SCc2cc(O)ccc2O)cc1	> 89.4	19.7	> 68.9	30.8	97	> 53.1	33.7	36.4	> 57.5	28.1	> 100
CCCCCCCCCCCCC1N=C(N)NC2(CCCO2)C1C(=O)OC (configuration not stated)	47.7	30.6	> 39.5	42.9	8.89	–	16.6	13.3	42.9	34.2	5.25
